The text below walks through data of US6861220B2, “Genetic screening methods” (Ramot University Authority for Applied Research & …, priority 1999, dated 2005).

The structures appear in SMILES notation.

The test system of the experiment is Clone 12 cells (HGPRT-deficient HT1080 fibrosarcoma cells). In words: Chemical synthetic lethality screen: retention of HGPRT-tpzGFP survival plasmid (tpzGFP/sphGFP fluorescence ratio) in microplates. In kind it is cell-based, human. Conditions: for detection of chemical synthetic lethality (survival plasmid retention) in blind large-scale test: Clone 12 in 1200 wells, medium lacking selection, chemicals added at random together with guanine (FIG. 9). The method, then:
For pIS, selection in G418 (Calbiochem) was carried out at 400 microg/ml, while maintenance was at 50 microg/ml. For the HGPRT-tpzGFP survival plasmid, selection in hygromycin B (Sigma) was at 150 microg/ml while maintenance was at 50 microg/ml. […] GATA medium was DMEM with 10% dialyzed FCS, plus 3.5 microM guanine-HCI, 0.4 microM aminopterin, 16 microM thymidine and 35 microM adenine.
For fluorescent scanning, cells were trypsinized and distributed at 30,000 cells/well into 96 well microplates (TPP). Growth medium was changed twice a week and plates were grown for up to 75 days. […] Plates were prepared for scanning by replacement of medium in wells with Hank's balanced salt solution without phenol red. […] Plates were scanned with an FL600 microplate fluorescence reader using the KC4 software (Biotek Instruments). Excitation for sphGFP was at 380 nin with a bandpass of 20 nm, while emission was measured at 508 nm with a bandpass of 40 nm.
Excitation of tpzGFP was at 495 nm with a bandpass of 20 mn, while emission was measured at 535 nm with a bandpass of 40 nm. To avoid possible artifacts, all wells within a given experiment were assayed for the fluorescence of the two GFP mutants using fixed sensitivities. Integrated sphGFP was used as an internal control for the number of cells. This was achieved by dividing the relative fluorescence resulting from the episomal tpzGFP vector by the relative fluorescence for sphGFP for each well. This ratio was then divided by the average fluorescence ratio for cells maintained under hygromycin B or HAT selection, resulting in a value representing percent remaining fluorescence for each well as compared to wells maintained under continuous selection. The data points are an average for all wells and the calculated standard deviation. Cells were returned to growth medium immediately following scanning.
Its loss or retention can be determined by measuring its normalized fluorescence in a microplate reader. It was then necessary to test whether these features would enable the tracing of a synthetic lethality condition. […] Under these conditions, normal HGPRT-positive cells can use supplied guanine to produce GMP via the salvage pathway, and survive, while HGPRT-deficient cells die.

On to `COc1c(C)c2c(c(O)c1C/C=C(\C)CCC(=O)O)C(=O)OC2` [MPA, mycophenolic acid], for which the “detection of chemical synthetic lethality (survival plasmid retention) in blind large-scale test” value (from here on “detection”) is given as “clearly detected”. Also, the “retention of the survival plasmid over time” value (Clone 12 cells, GATA medium + 12.5 microgram/ml MPA, entire time period (FIG. 6)) is recorded as “retention of the survival plasmid for the entire time period”. In addition, the “retention of the survival plasmid (tpzGFP to sphGFP fluorescence ratio), dose response” value (Clone 12 cells, GATA medium + MPA at successively higher concentrations, read after two weeks (FIG. 5)) is listed as “caused increasing retention of the survival plasmid”.

In the case of `N[C@@H](CN(O)N=O)C(=O)O` [alanosine], the “detection” value was “not retained”.

For `NC(=O)c1ncn([C@@H]2O[C@H](CO)[C@@H](O)[C@H]2O)c1O` [mizoribine], the “detection” value is “clearly detected”. Moreover, the “retention of the survival plasmid” value (Clone 12 cells, 96 well plates, serial dilutions of drug and of guanine, three weeks (FIGS. 7, 8)) is “caused retention of the survival plasmid”.
